Data: US8916550B2, “Compounds for modulating TRPV3 function” (Hydra Biosciences, Inc., priority 2005, dated 2014)

Key:
[1] = test system: Male Holtzman rats, thermal injury; assay: Thermal injury model, thermal escape latency (Hargreaves); type: in vivo, rat
Description: The thermal injury model was used to evaluate the effectiveness of an exemplary TRPV3 inhibitor in the treatment of nociceptive pain. FIG. 1 provides a schematic representation of the protocol used to evaluate a TRPV3 inhibitor in the thermal injury model.
(§1) Briefly, the following protocol was followed. Male Holtzman rats (approximately 300 grams) were tested on thermal escape using a Hargreaves type apparatus. Under light anesthesia, a thermal injury (52° C. for 45 seconds) was applied to one heel. The animals were tested for thermal escape latency of the injured and uninjured paw before and at 30, 60, 80 and 120 minutes after injury. Drug (a TRPV3 inhibitor or morphine) or vehicle (0.5% methylcellulose) was administered after the baseline measurement and approximately 15-20 minutes prior to the thermal injury. In addition to the escape latency measurement, behavioral observations were made throughout the experiment.

[2] = test system: Male Holtzman rats; assay: Behavioral deficits / side effects observed in thermal injury experiment (animals affected of n); type: in vivo, rat; settings: for Blistered paw / Catalepsy / Corneal response / Exopthalmos / Pinna response / Spontaneous agitation / Tactile allodynia: 10 mg/kg
Description: as §1
Table A provides a comparison of the side-effects observed in rats following administration of TRPV3 inhibitor 64, at varying concentrations, versus the side-effects observed in rats administered 10 mg/kg of morphine. Side-effects of rats administered 0.5% methycellulouse were observed and served as a control.

[3] = test system: Male Holtzman rats, thermal injury; settings: Table B comparators; based on our data as well as data available in the literature; cited from earlier work
[4] = test system: rats, carrageenan-injected hindpaw; settings: Table B comparators; based on our data as well as data available in the literature; cited from earlier work
[5] = test system: rats, CFA injected hindpaw; settings: Table B comparators; based on our data as well as data available in the literature; cited from earlier work
[6] = test system: Male Holtzman rats; settings: Table B comparators; based on our data as well as data available in the literature; cited from earlier work
[7] = test system: Male Holtzmann rats, intraplantar formalin; settings: Table B comparators; based on our data as well as data available in the literature; cited from earlier work

CN1CC[C@]23c4c5ccc(O)c4O[C@H]2[C@@H](O)C=C[C@H]3[C@H]1C5 [Morphine, morphine]
Effect on escape latency of injured and un-injured paw ([1]; morphine (FIG. 4)): does have an effect on both the injured and un-injured paw | Thermal escape latency after treatment ([1]; morphine, FIG. 4 legend): elevated above the baseline | Blistered paw ([2]; Pre Injury Observation): 0 of 7 | Catalepsy ([2]; Pre Injury Observation): 0 of 7 | Corneal response ([2]; Pre Injury Observation): 0 of 7 | Exopthalmos ([2]; Pre Injury Observation): 0 of 7 | Pinna response ([2]; Pre Injury Observation): 0 of 7 | Spontaneous agitation ([2]; Pre Injury Observation): 0 of 7 | Tactile allodynia ([2]; Pre Injury Observation): 0 of 7 | Blistered paw ([2]; t = 30 min): 0 of 7 | Catalepsy ([2]; t = 30 min): 4 of 7 | Corneal response ([2]; t = 30 min): 0 of 7 | Exopthalmos ([2]; t = 30 min): 6 of 7 | Pinna response ([2]; t = 30 min): 5 of 7 | Spontaneous agitation ([2]; t = 30 min): 0 of 7 | Tactile allodynia ([2]; t = 30 min): 0 of 7 | Blistered paw ([2]; t = 60 min): 0 of 7 | Catalepsy ([2]; t = 60 min): 3 of 7 | Corneal response ([2]; t = 60 min): 0 of 7 | Exopthalmos ([2]; t = 60 min): 6 of 7 | Pinna response ([2]; t = 60 min): 2 of 7 | Spontaneous agitation ([2]; t = 60 min): 0 of 7 | Tactile allodynia ([2]; t = 60 min): 0 of 7 | Blistered paw ([2]; t = 90 min): 0 of 7 | Catalepsy ([2]; t = 90 min): 1 of 7 | Corneal response ([2]; t = 90 min): 0 of 7 | Exopthalmos ([2]; t = 90 min): 6 of 7 | Pinna response ([2]; t = 90 min): 0 of 7 | Spontaneous agitation ([2]; t = 90 min): 0 of 7 | Tactile allodynia ([2]; t = 90 min): 0 of 7 | Blistered paw ([2]; t = 120 min): 0 of 7 | Catalepsy ([2]; t = 120 min): 0 of 7 | Corneal response ([2]; t = 120 min): 0 of 7 | Exopthalmos ([2]; t = 120 min): 0 of 7 | Pinna response ([2]; t = 120 min): 0 of 7 | Spontaneous agitation ([2]; t = 120 min): 0 of 7 | Tactile allodynia ([2]; t = 120 min): 0 of 7 | Side-effects of administration ([2]; morphine 10 mg/kg): exopthalmos (bulging eyes), catalepsy (a near catatonic state), and the pinna response | Acute thermal injury [3]: Effective | Carrageenan Model [4]: Effective | CFA Model [5]: Effective | Non-narcotic [6]: Narcotic

O=C(NCc1ccc(C(F)(F)F)cc1)Nc1cccc2cnccc12 [TRPV1 Antagonist]
Acute thermal injury [3]: Effective | Formalin Model [7]: Ineffective | Carrageenan Model [4]: Effective | CFA Model [5]: Effective
